Measured values reported in patent publication US20220409617A1, “Drug Formulations and Methods of Treatment for Metabolic Disorders” (The Regents of the University of California, priority 2019, published 2022).

Tested on: A549 lung cancer cells
Test: KRAS-mediated mitochondrial fission in A549 cells
Type: cell-based, human
Details: A549, oncogenic KRAS; 893 5 μM 1 h, leflunomide 50 μM 24 h
Description: 3T3-L1 cells were maintained in DMEM with 10% FBS and 1% penicillin-streptomycin until induced to differentiate. 3T3-L1 pre-adipocytes were differentiated as described in (M. P. Valley, et al., Anal. Biochem. 505: 43-50, 2016, the disclosure of which is incorporated herein by reference) with slight modifications. Briefly, pre-adipocytes were grown to confluence. After 2 d, cells were induced with maintenance media containing 500 μM IBMX (15879, Sigma-Aldrich, St. Louis, Mo.), 1 μM dexamethasone (D4902, Sigma-Aldrich), 5 μg/mL bovine insulin (10516, Sigma-Aldrich), and 5 μM troglitazone (50-115-0786, ApexBio). Media was changed every 2-3 d for 7 d. On day 7 post-induction, media was changed to maintenance media+5 μg/mL bovine insulin. On day 9 post-induction, media was changed to maintenance media. Mature adipocytes were used 12-14 d post-induction for all experiments. LSL-KrasG12D mouse embryonic fibroblasts (MEFs) with and without Cre-mediated deletion of the STOP cassette were obtained from David Tuveson (Cold Spring Harbor Laboratory, Cold Spring Harbor N.Y., USA) in 2000. p53^flox/flox MEFs were derived in house (2015) from C57BL/6 mice using standard techniques and immortalized by transient expression of Cre recombinase and deletion of p53. MEFs were cultured and maintained in DMEM with 10% FBS and 1% penicillin-streptomycin. A549 cells were cultured in DMEM with 10% FBS, 1% penicillin-streptomycin and 1% sodium pyruvate. Stock solution of palmitic acid (ACROS Organics, cat # AC129702500) was prepared at 100 mM in ethanol. Palmitate (250 μM) was conjugated to 1% (w/v) fatty-acid free bovine serum albumin (Sigma, A8806) in DMEM at 37° C. for 20 min. For all immunofluorescence assays, 8,000 MEFs were seeded into 8-chamber slides (Cellvis, cat # C8-1.5H-N) 12-16 h before treatment. Cells were pre-treated with sphingolipid-like compound 893 (5 μM in water), myriocin (10 μM in methanol), fumonisin-B1 (30 μM in DMSO), or celastrol (500 nM in DMSO) for 3 h followed by a 3 h treatment with BSA-conjugated palmitate mixture or BSA alone. […]
MEFs were washed twice with PBS and fixed with 4% paraformaldehyde for 10 min at RT. […] NADH/NADPH autofluorescence was detected with 740 nm excitation and 450±50 nm detectors using a Mai Tai two-photon laser. Fluorescence microscopy was performed on a Zeiss LSM 780 confocal using a 63× oil objective with a […] numerical aperture (NA) or using a Nikon TE2000-S inverted epifluorescence microscope with a 100× oil objective (1.3 NA) and a Photometrics CoolSNAP ES2 monochrome CCD camera. […]

CCCCCCCCc1ccc([C@H]2CCN[C@@H]2CO)cc1.Cl [compound 893]
Reversal of mitochondrial fragmentation / tubularity in A549 cells: rapidly corrected KRAS-mediated mitochondrial fission
